Here are results for 7 molecules from patent US9765105B2, “Macrolide compound” (Pulike Biological Engineering, Inc., priority 2013, dated 2017).

Each structure is given as a SMILES string.

Experiment in all cases: in vitro susceptibility, MIC by mini broth dilution
What all share (type): cell-based

The subject of experiment [1] is Staphylococcus aureus CVCC26003. The following applies: strain CVCC26003. A digest of the protocol: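 S. aureus CVCC26003 was revived and subcultured twice, 20 h each at 35° C, on solid medium, then diluted 1:200 in CAMHB liquid medium. Compounds received an 11-step two-fold DMSO dilution in parallel duplicate rows. MIC was read by mini broth dilution per NCCLS guidance.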

Experiment [2] concerns Actinobacillus pleuropneumoniae CVCC262. The following applies: strain CVCC262. A digest of the protocol: (§1)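 Read-out is the minimum inhibitory concentration, measured by mini broth dilution following the US NCCLS approved standard, with 11 two-fold compound dilutions in DMSO and a 1:200-diluted inoculum.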
In the next experiment the test system is Haemophilus parasuis. The gist of the method: as §1
Experiment [3] has as its system Pasteurella multocida CVCC399. The following applies: strain CVCC399. A digest of the protocol: as §1
Experiment [4] concerns Streptococcus equines CVCC556. Conditions: strain CVCC556. A digest of the protocol:
as §1

For `CC[C@H]1OC(=O)[C@H](C)[C@@H](O[C@H]2C[C@@](C)(OC)[C@](O)(CNc3ccccc3F)[C@H](C)O2)[C@H](C)[C@@H](O[C@@H]2O[C@H](C)C[C@H](N(C)C)[C@H]2O)[C@](C)(O)C[C@@H](C)NC[C@H](C)[C@@H](O)[C@]1(C)O` [syzx-68, (2R,3S,4R,5S,8R,10R,11R,12S,13S,14R)-13-[(2,6-dideoxy-3-C-methyl-3-O-methyl-4-C-[(2-fluoro-phenyl-amino)-methyl]-α-L-ribopyranosyl)oxy]-2-ethyl-3,4,10-trihydroxy-3,5,8,10,12,14-hexamethyl-11-[[3,4,6-trideoxy-3-(dimethylamino)-β-D-xylo-hexopyranosy]oxy]-1-oxa-7-azacyclopentadecan-15-one], in experiment [1], the “MIC values, Staphylococcus aureus CVCC26003” value was “≦0.25 ug/mi”. In experiment [2], the “MIC values, Actinobacillus pleuropneumoniae CVCC262” value came out at 8 ug/mi. In addition, the “MIC values, Haemophilus parasuis” value against Haemophilus parasuis is “≦0.25 ug/mi”. In addition, the “MIC values, Pasteurella multocida CVCC399” value in experiment [3] was found to be 8 ug/mi. Also, the “MIC values, Streptococcus equines CVCC556” value in experiment [4] is reported as “≦0.25 ug/mi”.
On to `CC[C@H]1OC(=O)[C@H](C)[C@@H](O[C@H]2C[C@@](C)(OC)[C@](O)(CNCCCN3CCOCC3)[C@H](C)O2)[C@H](C)[C@@H](O[C@@H]2O[C@H](C)C[C@H](N(C)C)[C@H]2O)[C@](C)(O)C[C@@H](C)NC[C@H](C)[C@@H](O)[C@]1(C)O` [syzx-69, (2R,3S,4R,5S,8R,10R,11R,12S,13S,14R)-13-[(2,6-dideoxy-3-C-methyl-3-O-methyl-4-C-[(3-morpholinyl-propyl-amino)-methyl]-α-L-ribopyranosyl)oxy]-2-ethyl-3,4,10-trihydroxy-3,5,8,10,12,14-hexamethyl-11-[[3,4,6-trideoxy-3-(dimethylamino)-β-D-xylo-hexopyranosy]oxy]-1-oxa-7-azacyclopentadecan-15-one], for which the “MIC values, Staphylococcus aureus CVCC26003” value in experiment [1] is 1 ug/mi. Besides, in experiment [2], the “MIC values, Actinobacillus pleuropneumoniae CVCC262” value amounted to 1 ug/mi. In addition, in the experiment with Haemophilus parasuis, the “MIC values, Haemophilus parasuis” value was 1 ug/mi. Moreover, the “MIC values, Pasteurella multocida CVCC399” value in experiment [3] came to 0.5 ug/mi. For the same molecule, the “MIC values, Streptococcus equines CVCC556” value in experiment [4] turned out to be 0.5 ug/mi.
`CC[C@H]1OC(=O)[C@H](C)[C@@H](O[C@H]2C[C@@](C)(OC)[C@](O)(CNCc3ccco3)[C@H](C)O2)[C@H](C)[C@@H](O[C@@H]2O[C@H](C)C[C@H](N(C)C)[C@H]2O)[C@](C)(O)C[C@@H](C)NC[C@H](C)[C@@H](O)[C@]1(C)O` [syzx-71, (2R,3S,4R,5S,8R,10R,11R,12S,13S,14R)-13-[(2,6-dideoxy-3-C-methyl-3-O-methyl-4-C-[(2-furfuryl-amino)-methyl]-α-L-ribopyranosyl)oxy]-2-ethyl-3,4,10-trihydroxy-3,5,8,10,12,14-hexamethyl-11-[[3,4,6-trideoxy-3-(dimethylamino)-β-D-xylo-hexopyranosy]oxy]-1-oxa-7-azacyclopentadecan-15-one]: in experiment [1], the “MIC values, Staphylococcus aureus CVCC26003” value came to 8 ug/mi. The “MIC values, Actinobacillus pleuropneumoniae CVCC262” value in experiment [2] was 16 ug/mi. In the experiment with Haemophilus parasuis, the “MIC values, Haemophilus parasuis” value was 8 ug/mi. In experiment [3], the “MIC values, Pasteurella multocida CVCC399” value is on record as “≦0.25 ug/mi”. In addition, the “MIC values, Streptococcus equines CVCC556” value in experiment [4] was “≦0.25 ug/mi”.
On to `CC[C@H]1OC(=O)[C@H](C)[C@@H](O[C@H]2C[C@@](C)(OC)[C@](O)(CNCc3cccc(N)c3)[C@H](C)O2)[C@H](C)[C@@H](O[C@@H]2O[C@H](C)C[C@H](N(C)C)[C@H]2O)[C@](C)(O)C[C@@H](C)NC[C@H](C)[C@@H](O)[C@]1(C)O` [syzx-72, (2R,3S,4R,5S,8R,10R,11R,12S,13S,14R)-13-[(2,6-dideoxy-3-C-methyl-3-O-methyl-4-C-[(3-aminobenzyl-amino)-methyl]-α-L-ribopyranosyl)oxy]-2-ethyl-3,4,10-trihydroxy-3,5,8,10,12,14-hexamethyl-11-[[3,4,6-trideoxy-3-(dimethylamino)-β-D-xylo-hexopyranosy]oxy]-1-oxa-7-azacyclopentadecan-15-one], for which the “MIC values, Staphylococcus aureus CVCC26003” value in experiment [1] is listed as 1 ug/mi. For the same molecule, the “MIC values, Actinobacillus pleuropneumoniae CVCC262” value in experiment [2] is given as 16 ug/mi. Besides, in the experiment on Haemophilus parasuis, the “MIC values, Haemophilus parasuis” value is 0.25 ug/mi. Also, the “MIC values, Pasteurella multocida CVCC399” value in experiment [3] was determined as 1 ug/mi. Moreover, in experiment [4], the “MIC values, Streptococcus equines CVCC556” value is “≦0.25 ug/mi”.
As for `CC[C@H]1OC(=O)[C@H](C)[C@@H](O[C@H]2C[C@@](C)(OC)[C@](O)(C=NNc3ccccc3)[C@H](C)O2)[C@H](C)[C@@H](O[C@@H]2O[C@H](C)C[C@H](N(C)C)[C@H]2O)[C@](C)(O)C[C@@H](C)NC[C@H](C)[C@@H](O)[C@]1(C)O` [syzx-73, (2R,3S,4R,5S,8R,10R,11R,12S,13S,14R)-13-[(2,6-dideoxy-3-C-methyl-3-O-methyl-4-C-[(phenylhydrazono)-methyl]-α-L-ribopyranosyl)oxy]-2-ethyl-3,4,10-trihydroxy-3,5,8,10,12,14-hexamethyl-11-[[3,4,6-trideoxy-3-(dimethylamino)-β-D-xylo-hexopyranosy]oxy]-1-oxa-7-azacyclopentadecan-15-one], the “MIC values, Staphylococcus aureus CVCC26003” value in experiment [1] is given as 1 ug/mi. For the same molecule, the “MIC values, Actinobacillus pleuropneumoniae CVCC262” value in experiment [2] is on record as 1 ug/mi. In addition, the “MIC values, Haemophilus parasuis” value against Haemophilus parasuis was 1 ug/mi. The “MIC values, Pasteurella multocida CVCC399” value in experiment [3] turned out to be 2 ug/mi. Further, the “MIC values, Streptococcus equines CVCC556” value in experiment [4] came to 0.5 ug/mi.
Consider `CC[C@H]1OC(=O)[C@H](C)[C@@H](O[C@H]2C[C@@](C)(OC)[C@](O)(CNCCc3c[nH]c4ccccc34)[C@H](C)O2)[C@H](C)[C@@H](O[C@@H]2O[C@H](C)C[C@H](N(C)C)[C@H]2O)[C@](C)(O)C[C@@H](C)NC[C@H](C)[C@@H](O)[C@]1(C)O` [syzx-74, (2R,3S,4R,5S,8R,10R,11R,12S,13S,14R)-13-[(2,6-dideoxy-3-C-methyl-3-O-methyl-4-C-{[2-(1H-indol-3-yl)-ethylamino]-methyl}-α-L-ribopyranosyl)oxy]-2-ethyl-3,4,10-trihydroxy-3,5,8,10,12,14-hexamethyl-11-[[3,4,6-trideoxy-3-(dimethylamino)-β-D-xylo-hexopyranosy]oxy]-1-oxa-7-azacyclopentadecan-15-one], for which the “MIC values, Staphylococcus aureus CVCC26003” value in experiment [1] amounted to 1 ug/mi. The “MIC values, Actinobacillus pleuropneumoniae CVCC262” value in experiment [2] is 1 ug/mi. For the same molecule, the “MIC values, Haemophilus parasuis” value with Haemophilus parasuis was 2 ug/mi. For the same molecule, the “MIC values, Pasteurella multocida CVCC399” value in experiment [3] was 1 ug/mi. Moreover, the “MIC values, Streptococcus equines CVCC556” value in experiment [4] turned out to be 0.5 ug/mi.
With `CC[C@H]1OC(=O)[C@H](C)[C@@H](O[C@H]2C[C@@](C)(OC)[C@](O)(CNCCCCl)[C@H](C)O2)[C@H](C)[C@@H](O[C@@H]2O[C@H](C)C[C@H](N(C)C)[C@H]2O)[C@](C)(O)C[C@@H](C)NC[C@H](C)[C@@H](O)[C@]1(C)O` [syzx-75, (2R,3S,4R,5S,8R,10R,11R,12S,13S,14R)-13-[(2,6-dideoxy-3-C-methyl-3-O-methyl-4-C-[(3-chloropropyl-amino)-methyl]-α-L-ribopyranosyl)oxy]-2-ethyl-3,4,10-trihydroxy-3,5,8,10,12,14-hexamethyl-11-[[3,4,6-trideoxy-3-(dimethylamino)-β-D-xylo-hexopyranosy]oxy]-1-oxa-7-azacyclopentadecan-15-one], the “MIC values, Staphylococcus aureus CVCC26003” value in experiment [1] amounted to 4 ug/mi. In addition, the “MIC values, Actinobacillus pleuropneumoniae CVCC262” value in experiment [2] was determined as 64 ug/mi. For the same molecule, the “MIC values, Haemophilus parasuis” value with Haemophilus parasuis came out at 4 ug/mi. Moreover, the “MIC values, Pasteurella multocida CVCC399” value in experiment [3] is 8 ug/mi. In experiment [4], the “MIC values, Streptococcus equines CVCC556” value stood at 4 ug/mi.
